Results reported in ChEMBL document CHEMBL1201862, “PubChem BioAssay data set” (2004).
Each block holds one compound with its values, some of them ahead of it. Activity calls are given as the source filed them.

Experiments:
Cytochrome P450 1A2 = target: T1, Cytochrome P450 1A2 (Homo sapiens, UniProt P05177);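 also: PubChem cytochrome P450 panel assay, CYP1A2 panel member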
T1 sequence (P05177 whole entry): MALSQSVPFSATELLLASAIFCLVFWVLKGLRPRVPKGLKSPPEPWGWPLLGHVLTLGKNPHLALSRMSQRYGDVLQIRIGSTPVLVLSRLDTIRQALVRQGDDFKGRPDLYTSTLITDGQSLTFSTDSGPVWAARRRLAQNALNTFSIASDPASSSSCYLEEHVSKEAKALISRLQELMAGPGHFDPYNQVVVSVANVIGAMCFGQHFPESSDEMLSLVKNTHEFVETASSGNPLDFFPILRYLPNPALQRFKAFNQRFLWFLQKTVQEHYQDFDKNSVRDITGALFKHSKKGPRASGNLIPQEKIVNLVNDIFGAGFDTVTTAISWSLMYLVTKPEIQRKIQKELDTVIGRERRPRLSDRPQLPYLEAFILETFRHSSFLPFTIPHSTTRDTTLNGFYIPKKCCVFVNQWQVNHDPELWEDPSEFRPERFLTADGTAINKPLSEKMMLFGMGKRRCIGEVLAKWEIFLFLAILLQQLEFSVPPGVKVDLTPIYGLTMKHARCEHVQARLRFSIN

Cytochrome P450 3A4 = Cytochrome P450 3A4 (Homo sapiens, UniProt P08684);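 also: CYP3A4 tested as one member of a cytochrome P450 panel screen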
[1] = target: T2, Heat shock factor protein 1 (Mus musculus, UniProt P38532); assay: decrease of HSF1-responsive luciferase luminescence – cell-based, NIH3T3, dose retest, confirmation (AID 2382); assay type: functional;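 also: NIH3T3 fibroblasts with HSF1-driven luciferase reporter stressed by proteasome inhibitor MG132; luminescence from HSF1-driven luciferase expression after 8 hours of MG132 stress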
T2 sequence (P38532 whole entry): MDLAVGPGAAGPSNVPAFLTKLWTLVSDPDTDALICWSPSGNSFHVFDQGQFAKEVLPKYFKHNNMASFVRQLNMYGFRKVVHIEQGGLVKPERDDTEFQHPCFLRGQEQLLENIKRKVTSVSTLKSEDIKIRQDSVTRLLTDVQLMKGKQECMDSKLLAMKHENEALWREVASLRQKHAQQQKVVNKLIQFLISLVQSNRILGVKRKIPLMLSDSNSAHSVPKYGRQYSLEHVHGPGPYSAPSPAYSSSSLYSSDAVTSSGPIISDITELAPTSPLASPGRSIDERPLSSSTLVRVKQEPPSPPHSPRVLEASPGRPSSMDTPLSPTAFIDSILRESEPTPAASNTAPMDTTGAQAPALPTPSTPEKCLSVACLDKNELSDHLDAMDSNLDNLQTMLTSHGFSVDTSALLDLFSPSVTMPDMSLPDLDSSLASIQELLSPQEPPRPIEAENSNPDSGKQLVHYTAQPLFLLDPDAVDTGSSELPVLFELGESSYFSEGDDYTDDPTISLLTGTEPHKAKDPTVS

[2] = Trypanosoma cruzi growth suppression in host cells – NIH3T3 host cells, beta-gal luminescence, confirmation (AID 2044); assay type: functional, cell-based;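 also: intracellular parasites grown in NIH/3T3 mouse fibroblasts as host cells; luminescent beta-galactosidase reporter signal from transgenic T. cruzi replicating inside host cells; inhibitors lower the luminescence signal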
Cytochrome P450 2C19 = Cytochrome P450 2C19 (Homo sapiens, UniProt P33261); assay: Cytochrome panel assay with activity outcomes. Panel member name: p450-cyp2c19 Compounds with AC50 equal or less than 10 uM are considered active; assay type: functional; details: read-out: AC50
[3] = NIH3T3 cell viability loss – ATP luminescence, mouse fibroblasts, counter-screen, dose response (AID 2010); assay type: functional, cell-based;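 also: cells exposed to compound for about 90 hours before reading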
Cytochrome P450 2C9 = Cytochrome P450 2C9 (Homo sapiens, UniProt P11712)
Cytochrome P450 2D6 = Cytochrome P450 2D6 (Homo sapiens, UniProt P10635);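 also: CYP2D6 member of a cytochrome P450 panel assay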
Sequence of Cytochrome P450 2D6 (P10635 whole entry): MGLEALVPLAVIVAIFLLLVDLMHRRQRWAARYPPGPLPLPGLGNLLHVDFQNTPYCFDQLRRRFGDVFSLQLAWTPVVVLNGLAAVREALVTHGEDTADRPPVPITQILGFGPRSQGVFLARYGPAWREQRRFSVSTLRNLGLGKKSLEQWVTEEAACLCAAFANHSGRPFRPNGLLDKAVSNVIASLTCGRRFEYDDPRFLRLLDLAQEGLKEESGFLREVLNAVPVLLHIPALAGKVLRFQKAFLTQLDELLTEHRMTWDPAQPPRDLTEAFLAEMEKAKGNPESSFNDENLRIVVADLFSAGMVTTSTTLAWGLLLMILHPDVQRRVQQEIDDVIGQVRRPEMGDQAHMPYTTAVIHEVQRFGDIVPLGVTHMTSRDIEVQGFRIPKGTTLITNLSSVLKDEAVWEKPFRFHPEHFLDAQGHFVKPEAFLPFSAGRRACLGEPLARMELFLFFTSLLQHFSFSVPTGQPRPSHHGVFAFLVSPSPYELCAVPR

Sequence of Cytochrome P450 2C19 (P33261 whole entry): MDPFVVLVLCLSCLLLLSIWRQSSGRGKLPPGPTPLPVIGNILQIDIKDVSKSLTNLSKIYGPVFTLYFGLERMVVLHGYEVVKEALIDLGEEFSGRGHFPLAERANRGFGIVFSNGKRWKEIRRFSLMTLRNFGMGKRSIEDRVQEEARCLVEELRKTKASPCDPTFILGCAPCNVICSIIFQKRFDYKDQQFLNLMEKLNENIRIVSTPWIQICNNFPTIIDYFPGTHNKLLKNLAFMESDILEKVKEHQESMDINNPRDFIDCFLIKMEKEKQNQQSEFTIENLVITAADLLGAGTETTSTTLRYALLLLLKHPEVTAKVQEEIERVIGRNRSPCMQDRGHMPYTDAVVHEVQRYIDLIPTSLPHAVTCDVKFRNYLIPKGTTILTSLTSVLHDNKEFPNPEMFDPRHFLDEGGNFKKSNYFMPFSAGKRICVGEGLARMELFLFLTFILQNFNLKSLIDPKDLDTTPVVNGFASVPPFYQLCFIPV
Sequence of Cytochrome P450 3A4 (P08684 whole entry): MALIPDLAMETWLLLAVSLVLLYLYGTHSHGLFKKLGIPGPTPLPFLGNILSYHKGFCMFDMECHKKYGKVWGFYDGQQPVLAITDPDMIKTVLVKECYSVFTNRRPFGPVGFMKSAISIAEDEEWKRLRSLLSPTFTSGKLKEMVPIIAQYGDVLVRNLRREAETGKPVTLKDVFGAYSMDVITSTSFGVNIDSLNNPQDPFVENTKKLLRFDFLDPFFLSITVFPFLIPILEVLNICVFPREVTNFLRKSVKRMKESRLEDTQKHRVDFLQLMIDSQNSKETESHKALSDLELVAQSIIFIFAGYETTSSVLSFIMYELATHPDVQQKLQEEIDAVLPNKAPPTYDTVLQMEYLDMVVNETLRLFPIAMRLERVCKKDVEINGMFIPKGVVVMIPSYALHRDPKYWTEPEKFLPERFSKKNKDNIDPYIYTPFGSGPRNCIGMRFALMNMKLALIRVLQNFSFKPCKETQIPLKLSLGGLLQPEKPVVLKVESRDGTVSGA
Sequence of Cytochrome P450 2C9 (P11712 whole entry): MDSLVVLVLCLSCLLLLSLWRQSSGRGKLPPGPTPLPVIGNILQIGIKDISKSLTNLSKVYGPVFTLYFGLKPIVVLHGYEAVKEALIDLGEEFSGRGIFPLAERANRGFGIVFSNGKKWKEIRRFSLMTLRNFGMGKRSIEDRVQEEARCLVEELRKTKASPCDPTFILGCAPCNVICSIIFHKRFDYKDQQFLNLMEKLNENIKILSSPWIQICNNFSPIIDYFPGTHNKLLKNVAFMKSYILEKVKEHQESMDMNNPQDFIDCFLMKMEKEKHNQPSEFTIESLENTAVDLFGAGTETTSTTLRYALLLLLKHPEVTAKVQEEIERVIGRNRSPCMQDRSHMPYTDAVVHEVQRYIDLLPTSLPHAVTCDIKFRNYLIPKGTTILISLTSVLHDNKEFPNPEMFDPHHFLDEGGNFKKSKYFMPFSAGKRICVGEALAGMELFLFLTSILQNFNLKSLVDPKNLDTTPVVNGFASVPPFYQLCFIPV

Compound: COC(=O)[C@H]1C(=O)[C@H](C(=O)OC)[C@@H]2CC[C@H]1N2C
AC50 (Cytochrome P450 1A2): 0.794 µM (inconclusive)

Compound: C=CCC1(C(=O)NCCO)CCN(C(=O)OC(C)(C)C)CC1
EC50 [1]: > 195 µM (not active)

Compound: Cc1ccc(NC(=S)N2CCN(CCN3C(=O)c4cccc5cccc(c45)C3=O)CC2)cc1
EC50 [2]: 855 nM (active)
AC50 (Cytochrome P450 2C19): 15.8 µM (inconclusive)
AC50 (Cytochrome P450 1A2): 20 µM (inconclusive)
EC50 [3]: > 60 µM (not active)

Compound: Cc1cccc(NS(=O)(=O)c2cc3c(cc2C)NC(=O)CO3)c1
EC50 [1]: > 195 µM (not active)

Compound: COc1ccc(C(=O)Nc2cccc(/C(C)=N/NC(=O)c3ccc([N+](=O)[O-])cc3)c2)cc1OC
AC50 (Cytochrome P450 2C9): 2.51 µM (inconclusive)
AC50 (Cytochrome P450 2C19): 31.6 µM (inconclusive)

Compound: COc1ccc2[nH]cc(CCNc3ncncc3-c3ccc(C(=O)N(C)C)cc3)c2c1
AC50 (Cytochrome P450 1A2): 20 µM (inconclusive)

Compound: COC(=O)[C@@]1(Cc2ccccc2)[C@H]2c3cc(C(=O)N(C)C)n(CCN4CNCC4=O)c3C[C@H]2CN1C(=O)c1ccccc1
AC50 (Cytochrome P450 2C9): 25.1 µM (inconclusive)
AC50 (Cytochrome P450 2C19): 31.6 µM (inconclusive)
AC50 (Cytochrome P450 1A2): 5.01 µM (inconclusive)

Compound: COc1ccc(N2CCN(C(CNC(=O)C(=O)NCc3ccncc3)c3ccco3)CC2)cc1 (stereo unspecified)
EC50 [1]: > 195 µM (not active)

Compound: CC(=O)Oc1ccccc1C(=O)Oc1ccccc1C(=O)O [DIPLOSALSALATE]
AC50 (Cytochrome P450 2C9): 15.8 µM (inconclusive)
AC50 (Cytochrome P450 1A2): 12.6 µM (inconclusive)

Compound: CN(C)c1nc(NCc2ccccc2)nc(N/N=C/c2ccc(Cl)cc2Cl)n1
AC50 (Cytochrome P450 2C19): 1 µM (inconclusive)

Compound: COc1ccc(O[C@H]2C=C[C@@H](c3ccccc3)O[C@H]2COC(=O)CC/C(C)=N\O[C@@H](C)c2cn([C@H]3COC[C@H]3O)nn2)cc1
AC50 (Cytochrome P450 2D6): 7.94 µM (inconclusive)

Compound: c1ccc(-c2ccccn2)nc1
AC50 (Cytochrome P450 1A2): 25.1 µM (inconclusive)

Compound: NC(=O)c1ccc[n+](CC(=O)OCCC23CC4CC(CC(C4)C2)C3)c1
EC50 [1]: > 195 µM (not active)
AC50 (Cytochrome P450 2D6): 39.8 µM (inconclusive)

Compound: C/C(Cn1nc([N+](=O)[O-])cc1C)=N\NC(=O)c1ccc(O)cc1O
AC50 (Cytochrome P450 2C19): 7.08 µM (inconclusive)
AC50 (Cytochrome P450 1A2): 25.1 µM (inconclusive)

Compound: CCNc1ncc2nc(-c3cc(F)cc(F)c3)c(=O)n(CCOC)c2n1
AC50 (Cytochrome P450 3A4): 7.94 µM (inconclusive)

Compound: CCCn1c(SCC(=O)c2c(C)[nH]c(C)c2C(=O)OCC)nc2ccccc21
EC50 [1]: > 195 µM (not active)

Second part, the compound after the results:

AC50 (Cytochrome P450 3A4): 15.8 µM (inconclusive)
Compound: O=C(Nc1ccc2c(c1)nc1n2CCN(C2CCCCC2)C1)NC1CCCCC1

EC50 [1]: > 195 µM (not active)
Compound: O=C(N/N=C\c1c[nH]nc1-c1ccccc1)c1cccs1

AC50 (Cytochrome P450 2C19): 15.8 µM (inconclusive)
AC50 (Cytochrome P450 1A2): 31.6 µM (inconclusive)
Compound: Cc1ccc(-c2cc(-c3nnc(SCC(=O)NC(C)C(C)C)n3N)c3ccccc3n2)cc1 (stereo unspecified)

AC50 (Cytochrome P450 2D6): 25.1 µM (inconclusive)
Compound: CCNc1ncc2nc(C)c(=O)n(Cc3cccc(OC)c3)c2n1

AC50 (Cytochrome P450 2C9): 28.2 µM (inconclusive)
AC50 (Cytochrome P450 1A2): 25.1 µM (inconclusive)
Compound: COc1ccc(-n2nnnc2-c2cn(C)nc2C(F)(F)F)cc1

AC50 (Cytochrome P450 2D6): 20 µM (inconclusive)
AC50 (Cytochrome P450 2C9): 10 µM (inconclusive)
Compound: CCc1c(C(=O)NCc2ccc3c(c2)OCO3)[nH]c(C)c1C(C)=O

AC50 (Cytochrome P450 2D6): 39.8 µM (inconclusive)
Compound: c1ccc(Nc2nc(-c3ccc4c(c3)OCO4)nc3ccccc23)cc1

EC50 [1]: > 195 µM (not active)
Compound: COCCCNC(=O)CC(NS(=O)(=O)c1ccc(C)cc1)c1ccc(OC)cc1 (stereo unspecified)

AC50 (Cytochrome P450 3A4): 5.01 µM (inconclusive)
Compound: CC1=C/C(=N/O)C([C@H]2C=C(C)CC(C)(C)[C@@H]2O)C(C)(C)C1 (stereo partly specified)

AC50 (Cytochrome P450 2C9): 0.00891 µM (inconclusive)
AC50 (Cytochrome P450 1A2): 3.55 µM (inconclusive)
Compound: Cc1ccccc1NC(=O)CSc1nc(N2CCCCC2)nc(N2CCCCC2)n1

EC50 [1]: > 195 µM (not active)
Compound: O=C(OCn1nnc2ccccc2c1=O)c1cc(-c2ccccc2)nc2ccccc12

AC50 (Cytochrome P450 2C19): 31.6 µM (inconclusive)
AC50 (Cytochrome P450 1A2): 12.6 µM (inconclusive)
Compound: CC1CN(C(=S)NC(=O)c2ccc([N+](=O)[O-])cc2)CC(C)O1 (stereo unspecified)

AC50 (Cytochrome P450 2D6): 15.8 µM (inconclusive)
AC50 (Cytochrome P450 2C9): 25.1 µM (inconclusive)
Compound: COc1ccc2c(c1)CCc1c(C(=O)N3CCCCCC3)noc1-2

EC50 [1]: > 195 µM (not active)
Compound: CN(C(=O)c1ccc(OC2CCN(Cc3ccccn3)CC2)cc1)C1CCCCC1

EC50 [1]: > 195 µM (not active)
Compound: COc1ccc(CC(C)Nc2cccc(SC)c2)cc1 (stereo unspecified)
